Values quoted from earlier work, collected in patent publication EP2637695B1, “OLMESARTAN FORMULATIONS” (Abdi Ibrahim Ilac Sanayi ve Ticaret Anonim Sirketi, priority 2010, dated 2012).
Where two headings read alike, the source gives them in different places.

Legend:
[1] = in humans

bioavailability (BA) [1]: approximately 26%
solubility (in 17 hydrochloric acid): insoluble
solubility (in strong acid): sparingly soluble
solubility (in strong base): soluble
solubility (in water and in the pH range of 3 to 9): practically insoluble
SMILES: CCCc1nc(C(C)(C)O)c(C(=O)OCc2oc(=O)oc2C)n1Cc1ccc(-c2ccccc2-c2nnn[nH]2)cc1 [Olmesartan medoxomil, (5-methyl-2-oxo-1,3-dioxolen-4-yl)rnethyl 4-(1-hydroxy-1-methylethyl)-2-propyl-1-{4-[2-(tetrazol-5-yl)phenyl]phenyl}methylimidazole-5-carboxylate]
